Reference: patent US20260250269A1, “APOPTOSIS INHIBITOR SALTS FOR CANCER” (priority 2022, published 2026)

How the values were obtained:
[1] = tested on: Caspase-3; experiment: Caspase-3 protein expression in xenografted SU-DHL-10 tumor (Western blot); format: in vivo, mouse; details: Form A, single i.m. injection 11.2 mg/kg, 24 hours post dosing, versus vehicle
Procedure: The pamoate was administrated via single intramuscular (i.m.) injection to SU-DHL-10 xenografted mice to examine the effect of the pamoate on c-Myc expression level in tumor at the 24-hour time point post injection.
The pamoate was mixed with appropriate volume of vehicle solution (0.5% carboxymethylcellulose sodium (CMC-Na, viscosity 400-800 cps, CAS No. 9004-32-4, Sigma-Aldrich, USA) and 0.2% Tween-80 in 10 mM pH 7.4 phosphate buffer saline (PBS)) to get a uniform suspension after 15 min sonication, with final concentration of 5.6 mg/mL. The dose volume was determined by the mice′ body weight collected on the morning of dosing day, calculated by the formula: dose volume (2 mL/kg)×body weight.
Human diffuse large B cell lymphoma cell line SU-DHL-10 was obtained from Cobioer Biotechnology Co., Ltd (China). […]
The tumor was excised with scissors, resuspended in cold cell lysis buffer containing 20 mM Tris (pH7.5), 150 mM NaCl, 1% Triton X-100, 2 mM AEBSF, […] Aprotinin, 130 μM Bestatin, 14 μM E64, 10 μM Leupeptin, 5 mM sodium fluoride, 1 mM sodium pyrophosphate, 1 mM β-glycerophosphate and 1 mM sodium orthovanadate, and then homogenized with handheld homogenizer (Beyotime, China). […] Protein contents were determined using Micro BCA™ Protein Assay Kit (23235, Thermo Scientific, USA). […] Visualization was carried out using the Enhanced Chemi-luminescence Kit (Beyotime, China).

[2] = tested on: SU-DHL-10 human diffuse large B cell lymphoma xenograft; experiment: Anti-tumor activity against SU-DHL-10 xenograft; format: in vivo, BALB/c nude mice
Procedure: For the monobromide continuous i.v. infusion group, the monobromide was dissolved with physiological saline to prepare 12.12 mg/mL clear solution.
For the monobromide i.p. injection group, the monobromide was dissolved with physiological saline to prepare 0.41 mg/mL clear solution. The dose volume was determined by the mice′ body weight collected on the morning of dosing day, calculated by the formula: dose volume (10 mL/kg)×body weight.
For the pamoate i.m. injection group, the pamoate salt was mixed with appropriate volume of vehicle solution (0.5% CMC-Na (viscosity 400-800 cps, CAS No. 9004-32-4), 0.2% Tween-80 in 10 mM pH 7.4 PBS saline) to get a uniform suspension after 15 min sonication, with final concentration of 5.6 mg/mL, similar to the procedure described in Example 14. The dose volume was determined by the mice′ body weight collected on the morning of dosing day, calculated by the formula: dose volume (2 mL/kg)×body weight.
Human diffuse large B cell lymphoma cell line SU-DHL-10 was obtained from Cobioer Biotechnology Co., Ltd (China). The cells were cultured at 37° C. with 5% CO2 in RPMI-1640 (Hyclone, USA) supplemented with 10% heat inactivated fetal bovine serum (Gibco, USA) and 1% GlutaMAX (Gibco, USA). The cells were collected, suspended in PBS at 2×10^8 cells/mL, and then mixed with the equivalent volume of Matrigel® Basement Membrane Matrix (Corning, USA).
Six-week-old female BALB/c-nude mice were purchased from SPF Biotechnology Co., Ltd. (Beijing, China). They were maintained on a standard diet and water throughout the experiments under specific pathogen-free conditions. The cells were cultured in vitro and 0.1×10^8 cells/0.1 mL/mouse were grafted subcutaneously into the flank of NOD-SCID (NVSG) mice (Beijing Viewsolid Biotech Co. LTD), 6-week-old. When the tumor reached about 1 cm in diameter, tumor-bearing mice were sacrificed and tumors were removed and sliced into small fragments (approximately 3×3×3 mm^3/fragment) and re-inoculated into BALB/c nude mice. The mice with a tumor volume (length×width^2×0.5) of 99.28 to 247.10 mm^3 were divided into four groups randomly, using Study Director Software (Studylog Systems, Inc, Version 3.1.399.22, USA) to minimize intragroup and intergroup tumor volume variation.
The first day of administration was designated day 0, and observation continued until day 35. Each group was treated as follows (Table 15).
The vehicle control group received i.m. injection of vehicle solution on day 0, 7 and 14 (Group 1). For 21-day continuous i.v. infusion, an osmotic pump containing the monobromide was implanted in the dorsum of each animal while under anesthesia on day 0, with daily dose of […], approximately 1.6 mg/kg/day (Group 2). The monobromide i.p. injection group was administrated referring to FIVE-DAY-ON, TWO-DAY-OFF procedure on day 0-4, 7-11 and 14-18 (Group 3) per Minoda et. al, Antitumor effect of YM155, a novel small-molecule survivin suppressant, via mitochondrial apoptosis in human MFH/UPS, International Journal of Oncology, 2015, 47:891-899. For the pamoate i.m. injection group, drug suspension was administrated once per week at 11.2 mg/kg, approximately 7 times daily dosage of the monobromide i.v. infusion group, on day 0, 7 and 14 (Group 4).

[3] = pH of about 7.4
[4] = Body weight in SU-DHL-10 xenografted mice; details: for Mean Body Weight ± SEM: Group 4: Form A, 11.2 mg/kg i.m. Day 0, 7, 14
[5] = Photostability test (ICH Option 1, ID65 light)
Procedure: Purity via HPLC, XRPD, and appearance inspection were performed before and after light exposure to determine photostability of the two compounds.
Light source—ICH Option 1 light source standard was adopted. ID65 light, equivalent indoor indirect daylight standard, with 250 W/m^2 light source intensity was used.
Total light exposure and light exposure time−total light exposure was set to 1.44 million lux light quantity (1000 lux×24 h×60 d=1,440,000 lux light quantity). Light stability testing box with ID65 light source of 250 W/m^2 intensity was adopted. According to ICH Option 1 standard, 21.8 hours light exposure could reach 1.2 million lux light quantity. Therefore, 26.2 hours light exposure is needed to reach 1.44 million lux quantity.
Testing—Accurately weight 0.5 g of the monobromide and the pamoate, place in petri dishes (covered with clear wrap film) and spread into a layer no more than 3 mm thickness, separately. Samples were put into light stability testing box, and received total amount of light exposure not less than 1.44 million lux light quantity (ID65 light, 250 W/m^2, 26.2 hours, 25° C., 60% relative humidity). After light exposure, samples were removed for characterization, including appearance inspection, XRPD and purity via HPLC.

[6] = Group 4: Form A, 11.2 mg/kg i.m. Day 0, 7, 14, Day 21
[7] = Group 4: Form A, 11.2 mg/kg i.m. Day 0, 7, 14, Day 35
[8] = ID65 light, 250 W/m^2, 25° C./60% RH (ICH Option 1), 26.2 hours
[9] = Initial, irradiation time 0 hours

COCCn1c2c([n+](Cc3cnccn3)c1C)C(=O)c1ccccc1C2=O.COCCn1c2c([n+](Cc3cnccn3)c1C)C(=O)c1ccccc1C2=O.O=C([O-])c1cc2ccccc2c(Cc2c(O)c(C(=O)[O-])cc3ccccc23)c1O [pamoate salt]
Cleaved Caspase-3 expression in tumors [1]: increased
Full length Caspase-3 expression in tumors [1]: decreased
Mean Tumor Volume ± SEM ([2]; Group 4: Form A, 11.2 mg/kg i.m. Day 0, 7, 14, Day 0): 151.26 ± 23.65 mm^3
Mean Tumor Volume ± SEM ([2]; Group 4: Form A, 11.2 mg/kg i.m. Day 0, 7, 14, Day 7): 0.00 ± 0.00 mm^3
Antitumor Activity, percent inhibition of tumor growth (% inh) [2, 6]: 118.27%
Antitumor Activity, percent regression of the tumor (% reg) [2, 6]: 100%
Mean Tumor Volume ± SEM [2, 6]: 0.00 ± 0.00 mm^3
Mean Tumor Volume ± SEM ([2]; Group 4: Form A, 11.2 mg/kg i.m. Day 0, 7, 14, Day 28): 23.61 ± 23.61 **^, N.S., $ mm^3
Antitumor Activity, percent inhibition of tumor growth (% inh) [2, 7]: 98.22%
Antitumor Activity, percent regression of the tumor (% reg) [2, 7]: −19.21%
Mean Tumor Volume ± SEM [2, 7]: 180.32 ± 101.25 **^, N.S., $ mm^3
Number of CRs (complete response) [2, 7]: 3/6
Safety and efficacy (in words) ([2]; SU-DHL-10 xenograft tumor model): good safety and efficacy
Aqueous solubility [3]: less than 0.02 mg/mL
Mean Body Weight ± SEM ([4]; Day 21): 21.43 ± 0.35 ^N.S. g
Mean Body Weight ± SEM ([4]; Day 35): 22.65 ± 0.30 ^N.S. g
Body weight decrease (in words) ([4]; each group (Groups 2-4), until day 35): no statistically significant decrease in body weight
Photostability (in words) ([5]; ICH Option 1 irradiation, 26.2 hours): excellent photostability
Description [5, 8]: Purple
Purity % (HPLC) [5, 8]: 99.38%
XRPD [5, 8]: Consistent
Description [5, 9]: Purple
Purity % (HPLC) [5, 9]: 99.29%
Change in the appearance, XRPD and HPLC purity ([5]; after ICH Option 1 irradiation, 26.2 hours): no significant change
